Experimental data taken from the supplement of paper PMC10307832.

Compound: CC(C)(C)c1cc(NC(=O)Nc2ccc(-c3cn4c(n3)sc3cc(OCCN5CCOCC5)ccc34)cc2)no1 [Quizartinib] + CC(=O)c1c(C)c2cnc(Nc3ccc(N4CCNCC4)cn3)nc2n(C2CCCC2)c1=O [Palbociclib] (partner 0.5 µM)
Test: relative viability (nuclei count vs DMSO), 5 days (fraction); higher = more cells survive
Settings: first compound 0.1 µM
In short: (§1)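 Relative viability equals treated-well nuclei counts divided by vehicle-well nuclei counts. Counts came from 4× images of lung cancer cell lines grown in 1536-well plates for 5 days after pin-tool dosing on the day after seeding. Dosing used one drug alone or a fixed anchor-drug dose plus five library-drug doses (not always all listed) in √10 steps, and values are medians of duplicate plates.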

Cell Line | relative viability
SW 1573 | 0.434
201T | 0.401
HCC-44 | 0.949
NCI-H1755 | 0.41
NCI-H1650 | 0.321
ChaGo-K-1 | 0.904
COR-L23 | 0.244
NCI-H2085 | 0.388
NCI-H460 | 0.125

Compound: CC(C)(C)c1cc(NC(=O)Nc2ccc(-c3cn4c(n3)sc3cc(OCCN5CCOCC5)ccc34)cc2)no1 [Quizartinib] + COc1cccc2cc(-c3nc([C@H]4CC[C@H](C(=O)O)CC4)n4ncnc(N)c34)[nH]c12 [OSI-027] (partner 0.5 µM)
Test: as above
Settings: first compound 0.001 µM
In short: as §1

Cell Line | relative viability
NCI-H1975 | 0.682
NCI-H1944 | 0.407
NCI-H2126 | 0.66
EMC-BAC-2 | 0.348
SK-LU-1 | 0.316
NCI-H2170 | 0.695
SW 900 | 0.533
NCI-H661 | 0.66
NCI-H358 | 0.706
CAL-12T | 0.658
LK-2 | 0.182
HOP-62 | 0.75
PC-14 | 0.737
NCI-H1993 | 0.487
NCI-H2405 | 0.653
NCI-H2342 | 0.664

Cell Line | relative viability
LOU-NH91 | 0.673
NCI-H1666 | 0.755
NCI-H838 | 0.346
NCI-H322M | 0.54
NCI-H1793 | 0.27
NCI-H441 | 0.424
NCI-H727 | 0.412
SW 1573 | 0.423
201T | 0.421
NCI-H1755 | 0.591
NCI-H1650 | 0.414
ChaGo-K-1 | 0.574
COR-L23 | 0.743
NCI-H2085 | 0.784
NCI-H460 | 0.585

Same assay, conditions: first compound 0.003162 µM

Cell Line | relative viability
NCI-H1975 | 0.624
NCI-H1944 | 0.476
NCI-H2126 | 0.753
EMC-BAC-2 | 0.397
SK-LU-1 | 0.312
NCI-H2170 | 0.659
SW 900 | 0.508
NCI-H661 | 0.594
NCI-H358 | 0.676
CAL-12T | 0.683
LK-2 | 0.199
HOP-62 | 0.769
PC-14 | 0.754
NCI-H1993 | 0.46
NCI-H2405 | 0.702
NCI-H3122 | 0.947
A-427 | 0.446
NCI-H2342 | 0.592

Cell Line | relative viability
LOU-NH91 | 0.749
NCI-H1666 | 0.883
NCI-H23 | 0.561
NCI-H838 | 0.4
NCI-H322M | 0.568
NCI-H1793 | 0.298
NCI-H441 | 0.669
NCI-H727 | 0.624
SW 1573 | 0.59
201T | 0.691
HCC-44 | 0.641
NCI-H1755 | 0.645
NCI-H1650 | 0.738
ChaGo-K-1 | 0.613
COR-L23 | 0.73
NCI-H2085 | 0.648
NCI-H460 | 0.593

Same assay, conditions: first compound 0.01 µM

Cell Line | relative viability
NCI-H1975 | 0.722
NCI-H1944 | 0.327
NCI-H2126 | 0.671
EMC-BAC-2 | 0.364
SK-LU-1 | 0.377
NCI-H2170 | 0.825
NCI-H661 | 0.692
NCI-H358 | 0.768
CAL-12T | 0.862
LK-2 | 0.185
HOP-62 | 1.03
PC-14 | 1
NCI-H1993 | 0.672
NCI-H2405 | 0.736
NCI-H3122 | 1.08
A-427 | 0.437
NCI-H2342 | 0.603

Cell Line | relative viability
LOU-NH91 | 0.712
NCI-H1666 | 0.856
NCI-H23 | 0.465
NCI-H838 | 0.299
NCI-H322M | 0.556
NCI-H1793 | 0.232
NCI-H441 | 0.564
NCI-H727 | 0.539
SW 1573 | 0.573
201T | 0.692
HCC-44 | 0.416
NCI-H1755 | 0.79
NCI-H1650 | 0.598
ChaGo-K-1 | 0.61
COR-L23 | 0.946
NCI-H2085 | 0.662
NCI-H460 | 0.692

Same assay, conditions: first compound 0.03162 µM

Cell Line | relative viability
NCI-H1975 | 0.673
NCI-H1944 | 0.395
NCI-H2126 | 0.621
SK-LU-1 | 0.35
NCI-H2170 | 0.774
SW 900 | 0.512
NCI-H661 | 0.693
NCI-H358 | 0.287
CAL-12T | 0.503
LK-2 | 0.198
HOP-62 | 0.87
NCI-H1993 | 0.621
NCI-H2405 | 0.644
A-427 | 0.484
NCI-H2342 | 0.68
LOU-NH91 | 0.742
NCI-H1666 | 0.764
NCI-H23 | 0.507
NCI-H838 | 0.38
NCI-H322M | 0.517
NCI-H1793 | 0.309
NCI-H727 | 0.869
201T | 0.412
HCC-44 | 0.475
NCI-H1755 | 0.793
ChaGo-K-1 | 0.514
COR-L23 | 0.696
NCI-H2085 | 0.778
NCI-H460 | 0.341

Same assay, conditions: first compound 0.1 µM

Cell Line | relative viability
NCI-H1975 | 0.572
NCI-H1944 | 0.387
NCI-H2126 | 0.693
EMC-BAC-2 | 0.413
SK-LU-1 | 0.37
NCI-H2170 | 0.816
SW 900 | 0.569
NCI-H661 | 0.721
NCI-H358 | 0.72
CAL-12T | 0.846
LK-2 | 0.182
HOP-62 | 0.847
PC-14 | 0.882
NCI-H1993 | 0.544
NCI-H2405 | 0.626
NCI-H3122 | 0.877
A-427 | 0.529
NCI-H2342 | 0.621
LOU-NH91 | 0.767
NCI-H1666 | 0.857
